Measured values reported in US8580790B2, “(Heterocycle/condensed piperidine)-(piperazinyl)-1-alkanone or (heterocycle/condensed pyrrolidine)-(piperazinyl)-1-alkanone derivatives and use thereof as p75 inhibitors” (Sanofi, priority 2009, dated 2013).
Counter-ions that a name gives are not always drawn.

Compound	melting point
C[C@@H]1CN(c2ccc3ccccc3n2)C[C@H](C)N1CC(=O)N1CCc2nn(-c3ccccc3)cc2C1 [compound 129, 2-((2S,6R)-2,6-dimethyl-4-quinolin-2-ylpiperazin-1-yl)-1-(2-phenyl-2,4,6,7-tetrahydropyrazolo[4,3-c]pyridin-5-yl)ethanone]	203 to 204 °C
O=C(CN1CC2CC1CN2c1ccc(C(F)(F)F)cn1)N1CCc2nn(-c3ccccc3)cc2C1 (centres unmarked) [compound 127, 1-(2-phenyl-2,4,6,7-tetrahydropyrazolo[4,3-c]pyridin-5-yl)-2-[5-(5-trifluoromethylpyridin-2-yl)-2,5-diazabicyclo[2.2.1]hept-2-yl]ethanone]	174 to 175 °C
O=C(CN1CC2CCC(C1)N2c1ccc(C(F)(F)F)cn1)N1CCc2nn(-c3ccccc3)cc2C1	212 to 213 °C
Cc1nc(-c2ccc(N3C[C@@H](C)N(CC(=O)N4CCc5nn(-c6ccccc6)cc5C4)[C@@H](C)C3)nc2)no1 [compound 89, 2-{(2S,6R)-2,6-dimethyl-4-[5-(5-methyl[1,2,4]oxadiazol-3-yl)-pyridin-2-yl]piperazin-1-yl}-1-(2-phenyl-2,4,6,7-tetrahydropyrazolo[4,3-c]pyridin-5-yl)ethanone]	163 to 164 °C
O=C(O)c1ccc(N2CC3CCC(C2)N3CC(=O)N2CCc3nn(-c4ccccc4)cc3C2)nc1	207 to 208 °C
CC(C)OC(=O)c1ccc(N2C[C@@H](C)N(CC(=O)N3CCc4nn(-c5ccccc5)cc4C3)[C@@H](C)C2)nc1 [compound 98, 6-{(3S,5R)-3,5-dimethyl-4-[2-oxo-2-(2-phenyl-2,4,6,7-tetrahydropyrazolo[4,3-c]pyridin-5-yl)ethyl]piperazin-1-yl}nicotinic acid isopropyl ester]	135 to 136 °C
O=C(CN1CCN(c2ccc(C(F)(F)F)cn2)C(=O)C1)N1CCc2sc(-c3ccccc3)nc2C1 [compound 82, 4-[2-oxo-2-(2-phenyl-6,7-dihydro-4H-thiazolo[4,5-c]pyridin-5-yl)ethyl]-1-(5-trifluoromethylpyridin-2-yl)piperazin-2-one]	140 to 142 °C
COC(=O)c1ccc(N2C[C@@H](C)N(CC(=O)N3CCc4c(cnn4C(C)(C)C)C3)[C@@H](C)C2)nc1 [compound 92, 6-{(3S,5R)-4-[2-(1-tert-butyl-1,4,6,7-tetrahydropyrazolo[4,3-c]pyridin-5-yl)-2-oxoethyl]-3,5-dimethylpiperazin-1-yl}nicotinic acid methyl ester]	134 to 135 °C
C[C@@H]1CN(c2ccc(C(F)(F)F)cn2)C[C@H](C)N1CC(=O)N1CCc2nc(-c3ccc(F)cc3)[nH]c2C1 [compound 124, 2-[(2S,6R)-2,6-dimethyl-4-(5-trifluoromethylpyridin-2-yl)piperazin-1-yl]-1-[2-(4-fluorophenyl)-3,4,6,7-tetrahydroimidazo[4,5-c]pyridin-5-yl]ethanone]	145 to 147 °C
O=C(CN1CC2CCC(C1)N2c1ncc(F)cn1)N1CCc2c(cnn2CC(F)(F)F)C1 (as salt: oxalate)	160 to 162 °C
C[C@@H]1CN(c2ccc(C(F)(F)F)cn2)C[C@H](C)N1CC(=O)N1CCc2nn(-c3ccc(C(F)(F)F)cn3)cc2C1 [compound 103, 2-[(2S,6R)-2,6-dimethyl-4-(5-trifluoromethylpyridin-2-yl)piperazin-1-yl]-1-[2-(5-trifluoromethylpyridin-2-yl)-2,4,6,7-tetrahydropyrazolo[4,3-c]pyridin-5-yl]ethanone]	190 to 191 °C
C[C@@H]1CN(CC(=O)N2CCc3nc(-c4ccccc4)sc3C2)[C@@H](C)CN1c1ccc(C#N)cn1 [compound 59, 6-{(2R,5S)-2,5-dimethyl-4-[2-oxo-2-(2-phenyl-6,7-dihydro-4H-thiazolo[5,4-c]pyridin-5-yl)ethyl]piperazin-1-yl}nicotinonitrile]	159 to 160 °C
C[C@@H]1CN(c2cncnc2)C[C@H](C)N1CC(=O)N1CCc2nc(-c3ccccc3)sc2C1 [compound 22, 2-((2S,6R)-2,6-dimethyl-4-pyrimidin-5-yl-piperazin-1-yl)-1-(2-phenyl-6,7-dihydro-4H-thiazolo[5,4-c]pyridin-5-yl)ethanone]	215 to 216 °C
C[C@@H]1CN(c2ccc(C(=O)O)cn2)C[C@H](C)N1CC(=O)N1CCc2nn(-c3ccccc3)cc2C1 (as salt: HCl) [compound 21, 6-{(3S,5R)-3,5-dimethyl-4-[2-oxo-2-(2-phenyl-2,4,6,7-tetrahydropyrazolo[4,3-c]pyridin-5-yl)ethyl]piperazin-1-yl}nicotinic acid]	209 to 211 °C
COc1ccc(-n2ncc3c2CCN(C(=O)CN2CC4CCC(C2)N4c2ncc(F)cn2)C3)cc1	194 to 195 °C
O=C(CN1CCN(c2ccc(C(F)(F)F)cn2)C(=O)C1)N1CCc2nc(-c3ccccc3)oc2C1 [compound 96, 4-[2-oxo-2-(2-phenyl-6,7-dihydro-4H-oxazolo[5,4-c]pyridin-5-yl)ethyl]-1-(5-trifluoromethylpyridin-2-yl)piperazin-2-one]	175 °C
C[C@@H]1CN(c2ncc(C(=O)O)cn2)C[C@H](C)N1CC(=O)N1CCc2nc(-c3ccccc3)sc2C1 (as salt: sodium) [compound 72, 2-{(3S,5R)-3,5-dimethyl-4-[2-oxo-2-(2-phenyl-6,7-dihydro-4H-thiazolo[5,4-c]pyridin-5-yl)ethyl]piperazin-1-yl}pyrimidine-5-carboxylic acid]	269 to 272 °C
COc1ccc(-c2nc3c(s2)CN(C(=O)CN2CC4CC2CN4c2ccc(C(F)(F)F)cn2)CC3)cc1 (centres unmarked) [compound 133, 1-[2-(4-methoxyphenyl)-6,7-dihydro-4H-thiazolo[5,4-c]pyridin-5-yl]-2-[5-(5-trifluoromethylpyridin-2-yl)-2,5-diazabicyclo[2.2.1]hept-2-yl]ethanone]	70 to 73 °C
C[C@@H]1CN(c2ncc(F)cn2)C[C@H](C)N1CC(=O)N1CCc2nn(-c3ccccc3)cc2C1 [compound 17, 2-[(2S,6R)-4-(5-fluoropyrimidin-2-yl)-2,6-dimethylpiperazin-1-yl]-1-(2-phenyl-2,4,6,7-tetrahydropyrazolo[4,3-c]pyridin-5-yl)ethanone]	174 to 175 °C
C[C@@H]1CN(c2ccc(C(F)(F)F)nc2)C[C@H](C)N1CC(=O)N1CCc2nn(-c3ccccc3)cc2C1 [compound 20, 2-[(2S,6R)-2,6-dimethyl-4-(6-trifluoromethylpyridin-3-yl)piperazin-1-yl]-1-(2-phenyl-2,4,6,7-tetrahydropyrazolo[4,3-c]pyridin-5-yl)ethanone]	174 to 175 °C
C[C@@H]1CN(c2ccc(C(F)(F)F)cn2)C[C@H](C)N1CC(=O)N1CCc2nn(-c3ccccn3)cc2C1 [compound 118, 2-[(2S,6R)-2,6-dimethyl-4-(5-trifluoromethylpyridin-2-yl)piperazin-1-yl]-1-(2-pyridin-2-yl-2,4,6,7-tetrahydropyrazolo[4,3-c]pyridin-5-yl)ethanone]	165 to 166 °C
CCn1cc2c(n1)CCN(C(=O)CN1CCN(c3ccc(C(F)(F)F)cn3)C(=O)C1)C2 [compound 148, 4-[2-(2-ethyl-2,4,6,7-tetrahydropyrazolo[4,3-c]pyridin-5-yl)-2-oxoethyl]-1-(5-trifluoromethylpyridin-2-yl)piperazin-2-one]	151 to 152 °C
C[C@@H]1CN(c2ccc(C(=O)O)cn2)C[C@H](C)N1CC(=O)N1CCc2nn(-c3ccccn3)cc2C1 [compound 140, 6-{(3S,5R)-3,5-dimethyl-4-[2-oxo-2-(2-pyridin-2-yl-2,4,6,7-tetrahydropyrazolo[4,3-c]pyridin-5-yl)ethyl]piperazin-1-yl}nicotinic acid]	147 to 150 °C
C[C@@H]1CN(c2cnccn2)C[C@H](C)N1CC(=O)N1CCc2nn(-c3ccc(C(F)(F)F)cn3)cc2C1 [compound 111, 2-((3S,5R)-3,5-dimethyl-2,3,5,6-tetrahydro[1,2′]bipyrazinyl-4-yl)-1-[2-(5-trifluoromethylpyridin-2-yl)-2,4,6,7-tetrahydropyrazolo[4,3-c]pyridin-5-yl]ethanone]	150 to 151 °C
Cc1nc2c(s1)CN(C(=O)CN1CC3CCC(C1)N3c1ncc(F)cn1)CC2	137 to 138 °C

More lines, now with the values ahead:

melting point	Compound
155 °C	O=C(CN1CC2CCC(C1)N2c1ccc(C(F)(F)F)cn1)N1CCc2cc(-c3ccccc3)oc2C1
159 to 160 °C	COC(=O)c1ccc(N2C3CCC2CN(CC(=O)N2CCc4nc(-c5ccc(OC)cc5)sc4C2)C3)nc1
203 to 207 °C	COc1ccc(-c2nc3c(s2)CN(C(=O)CN2CC4CCC(C2)N4c2ncc(F)cn2)CC3)cc1
191 to 192 °C	COC(=O)c1ccc(N2CCN(CC(=O)N3CCc4nc(-c5ccccc5)sc4C3)CC2=O)nc1 [compound 25, 6-{2-oxo-4-[2-oxo-2-(2-phenyl-6,7-dihydro-4H-thiazolo[5,4-c]pyridin-5-yl)ethyl]piperazin-1-yl}nicotinic acid methyl ester]
176 to 179 °C	O=C(CN1CC2CCC(C1)N2c1ccc(-c2noc(=O)[nH]2)cn1)N1CCc2nn(-c3ccccc3)cc2C1
150 to 152 °C	O=C(CN1CC2CCC(C1)N2c1ccc(C(F)(F)F)cn1)N1CCc2nc(-c3ccccc3)[nH]c2C1
180 to 184 °C	O=C(CN1CC2CCC(C1)N2c1ncc(F)cn1)N1CCc2sc(-c3ccccc3)nc2C1
215 to 218 °C	O=C(CN1CC2CCC(C1)N2c1ccc(-c2noc(=O)[nH]2)cn1)N1CCc2nc(-c3ccccc3)sc2C1
250 to 251 °C	O=C(O)c1ccc(N2CC3CCC(C2)N3CC(=O)N2CCc3nc(-c4ccccc4)sc3C2)nc1
201 to 202 °C	O=C(CN1CC2CCC(C1)N2c1ccc(-c2nnn[nH]2)cn1)N1CCc2nc(-c3ccccc3)sc2C1
130 to 132 °C	O=C(CN1CC2CCC(C1)N2c1ncc(F)cn1)N1CCc2nc(-c3ccccc3)[nH]c2C1
231 to 237 °C	O=C(CN1CCN(c2ccc(-c3ccn[nH]3)cn2)CC1)N1CCc2nc(-c3ccccc3)sc2C1 [compound 134, 1-(2-phenyl-6,7-dihydro-4H-thiazolo[5,4-c]pyridin-5-yl)-2-{4-[5-(2H-pyrazol-3-yl)pyridin-2-yl]piperazin-1-yl}ethanone]
198 to 200 °C	N#Cc1ccc(N2C3CCC2CN(CC(=O)N2CCc4nn(-c5ccccc5)cc4C2)C3)nc1
